# Assay results as given in US20240099304A1, “SYNERGISTIC HERBICIDAL COMPOSITIONS OF METAMIFOP” (Parijat Industries (India) Private Limited, priority 2021, published 2024).
# Assays:
# Type in all cases: in vivo
# [1] = system: Brachiaria eruciformis; assay: Field efficacy on grass weed in soybean, post-emergence foliar application
# Method: (§1) As described in the Herbicide Handbook of the Weed Science Society of America, Ninth Edition, 2007, p. 429, “synergism” [is] an interaction of two or more factors such that the effect when combined is greater than the predicted effect based on the response to each factor applied separately. In the Colby method, the expected (or predicted) response of a combination of herbicides is calculated by taking the product of the observed response for each individual component of the combination when applied alone divided by 100 and subtracting this value from the sum of the observed response for each component while applied alone. An unexpected enhancement in efficacy of the combination is then determined by comparing the observed response of the combination to the expected (or predicted) response as calculated from the observed response of each individual component alone. If the observed response of the combination is greater than the expected (or predicted) response, or stated conversely, if the difference between the observed and expected response is greater than zero, then the combination is said to be synergistic or unexpectedly effective. (Colby, S. R., Weeds, 1967(15), p. 20-22). The Colby method required only a single dose of each herbicide applied alone and the mixture of both doses.
# (§2) Synergy Study: The following formula was used to calculate the expected activity of mixtures containing active ingredients, A and B:
# (§3) • A=Observed efficacy of active ingredient (combination of Metamifop and Imidazolinone herbicides) A at the same concentration as used in the mixture. • B=observed efficacy of active ingredient B at the same concentration as used in the mixture. However, following formula was used to calculate the expected activity of mixtures containing three active ingredients, A, B and C:
# (§4) • A=observed efficacy of active ingredient (combination of Metamifop and Imidazolinone herbicides) A at the same concentration as used in the mixture. • B=observed efficacy of active ingredient B at the same concentration as used in the mixture. • C=observed efficacy of active ingredient C at the same concentration as used in the mixture.
# (§5) EFFICACY STUDY: The field experiments were carried out to test the synergy of the combination Metamifop, Imazethapyr, and Imazamox in India at various locations like in MP, Maharashtra, Karnataka, and Telangana on farmer's field against soybean weeds during Kharif season. The experiment comprising of 15 treatments including premixed binary and ternary combinations along with their stand-alone molecule using a randomized block design replicated thrice. All the treatments were applied as post-emergence foliar application when the weeds reached to two to four leaf stage. The spray was conducted with the help of Battery-operated Knapsack sprayer. The percentage efficacy was calculated after 14 and 21 days after application of herbicides.
# (§6) The weeds present in the experimental fields were echinochloa conola, echinochloa crusgalli, brachiaria euriciformis, rottboellia cochinchinensis, cynodon dactylon, parthenium hyterophorus, digera arvensis, cynotis axillaris, acalypha indica, Commelina benghalensis, celosia argentia, cyperus spp.
# [2] = system: Echinochloa crusgalli; assay: as above
# Method: as §1, §2, §3, §4, §5, §6
# [3] = system: Rottboellia cochinchinensis; assay: as above
# Method: as §1, §2, §3, §4, §5, §6
# [4] = system: Commelina benghalensis; assay: Field efficacy on broad leaf weed in soybean, post-emergence foliar application
# Method: as §1, §2, §3, §4, §5, §6
# [5] = system: Cyanotis axillaris; assay: as above
# Method: as §1, §2, §3, §4, §5, §6
# [6] = system: Parthenium hysterophorus; assay: as above
# Method: as §1, §2, §3, §4, §5, §6
# [7] = system: Soybean; assay: Phytotoxicity in Soybean, visual grading on 0-10 scale; parameters: key: visual phytotoxicity grade on 0-10 scale
# Method: as §5
# Phytotoxic effect of herbicidal combination of Metamifop, Imazethapyr and Imazamox in soyabean: Table 5, 10 show the visual observations and grading on phytotoxicity which was recorded for leaf injury on tip/surface, Epinasty/Hyponasty, and wilting etc. on 0-10 scale (as below) at 1, 3, 7, 14 and 21 days after application of the present herbicidal composition.
# [8] = system: hard to kill broad leaf weeds; assay: Field efficacy, summary on broad leaf weeds
# Method: as §1, §5
# [9] = 14 DAA, Imazethapyr 35 gm ai/ha
# [10] = 14 DAA, Imazethapyr 40 gm ai/ha
# [11] = 14 DAA, Imazethapyr 50 gm ai/ha
# [12] = 14 DAA, Imazethapyr 75.375 gm ai/ha
# [13] = 21 DAA, Imazethapyr 35 gm ai/ha
# [14] = 21 DAA, Imazethapyr 40 gm ai/ha
# [15] = 21 DAA, Imazethapyr 50 gm ai/ha
# [16] = 21 DAA, Imazethapyr 75.375 gm ai/ha
structure (smiles),measurement,setting,value
COCc1cnc(C2=NC(C)(C(C)C)C(=O)N2)c(C(=O)O)c1 (stereo not drawn) [Imazamox],% Weed control burn down symptoms generation Observed,"[1]; 14 DAA, Imazamox 20 gm ai/ha",0%
same,% Weed control burn down symptoms generation Observed,"[1]; 14 DAA, Imazamox 30 gm ai/ha",0%
same,% Weed control burn down symptoms generation Observed,"[1]; 14 DAA, Imazamox 35 gm ai/ha",0%
same,% Weed control burn down symptoms generation Observed,"[1]; 21 DAA, Imazamox 20 gm ai/ha",0%
same,% Weed control burn down symptoms generation Observed,"[1]; 21 DAA, Imazamox 30 gm ai/ha",0%
same,% Weed control burn down symptoms generation Observed,"[1]; 21 DAA, Imazamox 35 gm ai/ha",0%
same,% Weed control burn down symptoms generation Observed,"[2]; 14 DAA, Imazamox 20 gm ai/ha",0%
same,% Weed control burn down symptoms generation Observed,"[2]; 14 DAA, Imazamox 30 gm ai/ha",0%
same,% Weed control burn down symptoms generation Observed,"[2]; 14 DAA, Imazamox 35 gm ai/ha",0%
same,% Weed control burn down symptoms generation Observed,"[2]; 21 DAA, Imazamox 20 gm ai/ha",0%
same,% Weed control burn down symptoms generation Observed,"[2]; 21 DAA, Imazamox 30 gm ai/ha",0%
same,% Weed control burn down symptoms generation Observed,"[2]; 21 DAA, Imazamox 35 gm ai/ha",0%
same,% Weed control burn down symptoms generation Observed,"[3]; 14 DAA, Imazamox 20 gm ai/ha",0%
same,% Weed control burn down symptoms generation Observed,"[3]; 14 DAA, Imazamox 30 gm ai/ha",0%
same,% Weed control burn down symptoms generation Observed,"[3]; 14 DAA, Imazamox 35 gm ai/ha",0%
same,% Weed control burn down symptoms generation Observed,"[3]; 21 DAA, Imazamox 20 gm ai/ha",0%
same,% Weed control burn down symptoms generation Observed,"[3]; 21 DAA, Imazamox 30 gm ai/ha",0%
same,% Weed control burn down symptoms generation Observed,"[3]; 21 DAA, Imazamox 35 gm ai/ha",0%
same,% Weed control burn down symptoms generation Observed,"[4]; 14 DAA, Imazamox 20 gm ai/ha",0%
same,% Weed control burn down symptoms generation Observed,"[4]; 14 DAA, Imazamox 30 gm ai/ha",4%
same,% Weed control burn down symptoms generation Observed,"[4]; 14 DAA, Imazamox 35 gm ai/ha",6%
same,% Weed control burn down symptoms generation Observed,"[4]; 21 DAA, Imazamox 20 gm ai/ha",0%
same,% Weed control burn down symptoms generation Observed,"[4]; 21 DAA, Imazamox 30 gm ai/ha",0%
same,% Weed control burn down symptoms generation Observed,"[4]; 21 DAA, Imazamox 35 gm ai/ha",0%
same,% Weed control burn down symptoms generation Observed,"[5]; 14 DAA, Imazamox 20 gm ai/ha",0%
same,% Weed control burn down symptoms generation Observed,"[5]; 14 DAA, Imazamox 30 gm ai/ha",0%
same,% Weed control burn down symptoms generation Observed,"[5]; 14 DAA, Imazamox 35 gm ai/ha",0%
same,% Weed control burn down symptoms generation Observed,"[5]; 21 DAA, Imazamox 20 gm ai/ha",0%
same,% Weed control burn down symptoms generation Observed,"[5]; 21 DAA, Imazamox 30 gm ai/ha",0%
same,% Weed control burn down symptoms generation Observed,"[5]; 21 DAA, Imazamox 35 gm ai/ha",0%
same,% Weed control burn down symptoms generation Observed,"[6]; 14 DAA, Imazamox 20 gm ai/ha",0%
same,% Weed control burn down symptoms generation Observed,"[6]; 14 DAA, Imazamox 30 gm ai/ha",0%
same,% Weed control burn down symptoms generation Observed,"[6]; 14 DAA, Imazamox 35 gm ai/ha",0%
same,% Weed control burn down symptoms generation Observed,"[6]; 21 DAA, Imazamox 20 gm ai/ha",0%
same,% Weed control burn down symptoms generation Observed,"[6]; 21 DAA, Imazamox 30 gm ai/ha",0%
same,% Weed control burn down symptoms generation Observed,"[6]; 21 DAA, Imazamox 35 gm ai/ha",0%
same,Phytotoxicity score,"[7]; Soybean, 1 DAA, Imazamox 20 gm ai/ha",0
same,Phytotoxicity score,"[7]; Soybean, 1 DAA, Imazamox 30 gm ai/ha",0
same,Phytotoxicity score,"[7]; Soybean, 1 DAA, Imazamox 35 gm ai/ha",0
same,Phytotoxicity score,"[7]; Soybean, 3 DAA, Imazamox 20 gm ai/ha",0
same,Phytotoxicity score,"[7]; Soybean, 3 DAA, Imazamox 30 gm ai/ha",0
same,Phytotoxicity score,"[7]; Soybean, 3 DAA, Imazamox 35 gm ai/ha",0
same,Phytotoxicity score,"[7]; Soybean, 7 DAA, Imazamox 20 gm ai/ha",0
same,Phytotoxicity score,"[7]; Soybean, 7 DAA, Imazamox 30 gm ai/ha",0
same,Phytotoxicity score,"[7]; Soybean, 7 DAA, Imazamox 35 gm ai/ha",0
same,Phytotoxicity score,"[7]; Soybean, 14 DAA, Imazamox 20 gm ai/ha",0
same,Phytotoxicity score,"[7]; Soybean, 14 DAA, Imazamox 30 gm ai/ha",0
same,Phytotoxicity score,"[7]; Soybean, 14 DAA, Imazamox 35 gm ai/ha",0
same,Phytotoxicity score,"[7]; Soybean, 21 DAA, Imazamox 20 gm ai/ha",0
same,Phytotoxicity score,"[7]; Soybean, 21 DAA, Imazamox 30 gm ai/ha",0
same,Phytotoxicity score,"[7]; Soybean, 21 DAA, Imazamox 35 gm ai/ha",0
same,"Control on targeted weeds, applied alone",[8]; at 14 days,no or very less control
same,"Control on targeted weeds, applied alone",[8]; at 21 days,no or very less control
CCc1cnc(C2=NC(C)(C(C)C)C(=O)N2)c(C(=O)O)c1 (stereo not drawn) [Imazethapyr],% Weed control burn down symptoms generation Observed,[1]; [9],8%
same,% Weed control burn down symptoms generation Observed,[1]; [10],10%
same,% Weed control burn down symptoms generation Observed,[1]; [11],20%
same,% Weed control burn down symptoms generation Observed,[1]; [12],22%
same,% Weed control burn down symptoms generation Observed,[1]; [13],0%
same,% Weed control burn down symptoms generation Observed,[1]; [14],0%
same,% Weed control burn down symptoms generation Observed,[1]; [15],0%
same,% Weed control burn down symptoms generation Observed,[1]; [16],15%
same,% Weed control burn down symptoms generation Observed,[2]; [9],15%
same,% Weed control burn down symptoms generation Observed,[2]; [10],18%
same,% Weed control burn down symptoms generation Observed,[2]; [11],18%
same,% Weed control burn down symptoms generation Observed,[2]; [12],20%
same,% Weed control burn down symptoms generation Observed,[2]; [13],8%
same,% Weed control burn down symptoms generation Observed,[2]; [14],12%
same,% Weed control burn down symptoms generation Observed,[2]; [15],16%
same,% Weed control burn down symptoms generation Observed,[2]; [16],18%
same,% Weed control burn down symptoms generation Observed,[3]; [9],0%
same,% Weed control burn down symptoms generation Observed,[3]; [10],0%
same,% Weed control burn down symptoms generation Observed,[3]; [11],25%
same,% Weed control burn down symptoms generation Observed,[3]; [12],30%
same,% Weed control burn down symptoms generation Observed,[3]; [13],0%
same,% Weed control burn down symptoms generation Observed,[3]; [14],0%
same,% Weed control burn down symptoms generation Observed,[3]; [15],0%
same,% Weed control burn down symptoms generation Observed,[3]; [16],0%
same,% Weed control burn down symptoms generation Observed,[4]; [9],6%
same,% Weed control burn down symptoms generation Observed,[4]; [10],22%
same,% Weed control burn down symptoms generation Observed,[4]; [11],35%
same,% Weed control burn down symptoms generation Observed,[4]; [12],56%
same,% Weed control burn down symptoms generation Observed,[4]; [13],0%
same,% Weed control burn down symptoms generation Observed,[4]; [14],13%
same,% Weed control burn down symptoms generation Observed,[4]; [15],20%
same,% Weed control burn down symptoms generation Observed,[4]; [16],45%
same,% Weed control burn down symptoms generation Observed,[5]; [9],12%
same,% Weed control burn down symptoms generation Observed,[5]; [10],25%
same,% Weed control burn down symptoms generation Observed,[5]; [11],447%
same,% Weed control burn down symptoms generation Observed,[5]; [12],0%
same,% Weed control burn down symptoms generation Observed,[5]; [13],0%
same,% Weed control burn down symptoms generation Observed,[5]; [14],7%
same,% Weed control burn down symptoms generation Observed,[5]; [15],20%
same,% Weed control burn down symptoms generation Observed,[5]; [16],36%
same,% Weed control burn down symptoms generation Observed,[6]; [9],0%
same,% Weed control burn down symptoms generation Observed,[6]; [10],6%
same,% Weed control burn down symptoms generation Observed,[6]; [11],11%
same,% Weed control burn down symptoms generation Observed,[6]; [12],28%
same,% Weed control burn down symptoms generation Observed,[6]; [13],0%
same,% Weed control burn down symptoms generation Observed,[6]; [14],4%
same,% Weed control burn down symptoms generation Observed,[6]; [15],6%
same,% Weed control burn down symptoms generation Observed,[6]; [16],15%
same,Phytotoxicity score,"[7]; soybean, in vivo, 1 days after application",0
same,Phytotoxicity score,"[7]; soybean, in vivo, 3 days after application",0
same,Phytotoxicity score,"[7]; soybean, in vivo, 7 days after application",0
same,Phytotoxicity score,"[7]; soybean, in vivo, 14 days after application",0
same,Phytotoxicity score,"[7]; soybean, in vivo, 21 days after application",0
same,"Control on targeted weeds, applied alone",[8]; at 14 days,no or very less control
same,"Control on targeted weeds, applied alone",[8]; at 21 days,no or very less control
